Reference: patent US6737383B1, “Herbicidal oxadiazolidines” (priority 1999, dated 2004)

How the values were obtained:
rape = experiment: Test B pre/postemergence rape; format: in vivo, Brassica napus; conditions: for Plant response rating, Rape: scale of 0 to 10 where 0 is no effect and 10 is complete control
Outline: (§1)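 Herbicidal effect was estimated by eye on a ten-point control scale after plants spent twelve to sixteen days in a greenhouse following soil or foliar treatment. Foliar sprays targeted plants at one to four leaves; all doses were formulated in a non-phytotoxic solvent with surfactant.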

surinam grass = experiment: Test B pre/postemergence surinam grass; format: in vivo, Brachiaria decumbens
Outline: as §1

smallflower flatsedge = experiment: Test B flood test smallflower flatsedge; format: in vivo, Cyperus difformis
Outline: (§2)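 Read-out is a visual response score from 0 (no effect) to 10 (complete control), assigned by comparison with untreated controls. Treatment was applied at the 2-leaf stage, and plants stayed in the greenhouse for twelve to sixteen days before scoring.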

wheat = experiment: Test B pre/postemergence wheat; format: in vivo, Triticum aestivum; conditions: for Plant response rating, Wheat: scale of 0 to 10 where 0 is no effect and 10 is complete control
Outline: as §1

morningglory = experiment: Test B pre/postemergence morningglory; format: in vivo, Ipomoea hederacea; conditions: for Plant response rating, Morningglory: scale of 0 to 10 where 0 is no effect and 10 is complete control
Outline: as §1

velvetleaf = experiment: Test B pre/postemergence velvetleaf; format: in vivo, Abutilon theophrasti; conditions: for Plant response rating, Velvetleaf: scale of 0 to 10 where 0 is no effect and 10 is complete control
Outline: as §1

wild oat = experiment: Test B pre/postemergence wild oat; format: in vivo, Avena fatua; conditions: for Plant response rating, Wild oats: scale of 0 to 10 where 0 is no effect and 10 is complete control
Outline: as §1

corn = experiment: Test B pre/postemergence corn; format: in vivo, Zea mays
Outline: as §1

duck salad = experiment: Test B flood test duck salad; format: in vivo, Heteranthera limosa
Outline: as §2

blackgrass = experiment: Test B pre/postemergence blackgrass; format: in vivo, Alopecurus myosuroides
Outline: as §1

rice = experiment: Test B flood test rice; format: in vivo, Oryza sativa
Outline: as §2

pigweed = experiment: Test B pre/postemergence pigweed; format: in vivo, Amaranthus retroflexus; conditions: for Plant response rating, Redroot pigweed: scale of 0 to 10 where 0 is no effect and 10 is complete control
Outline: as §1

cocklebur = experiment: Test B pre/postemergence cocklebur; format: in vivo, Xanthium strumarium
Outline: as §1

bedstraw = experiment: Test B pre/postemergence bedstraw; format: in vivo, Galium aparine; conditions: for Plant response rating, Bedstraw: scale of 0 to 10 where 0 is no effect and 10 is complete control
Outline: as §1

purple nutsedge = experiment: Test B pre/postemergence purple nutsedge; format: in vivo, Cyperus rotundus; conditions: for Plant response rating, Nutsedge: scale of 0 to 10 where 0 is no effect and 10 is complete control
Outline: as §1

bamyardgrass = experiment: Test B flood test barnyardgrass; format: in vivo, Echinochloa crus-galli
Outline: as §2

[1] = Postemergence, Rate 250 g/ha, scale 0 to 10
[2] = Preemergence, Rate 250 g/ha, scale 0 to 10, 0 is no effect, 10 is complete control
[3] = Preemergence, Rate 500 g/ha, scale 0 to 10, 0 is no effect, 10 is complete control
[4] = Rate 62 g/ha, Postemergence, scale 0 to 10 (0 no effect, 10 complete control)
[5] = Rate 125 g/ha, Postemergence, scale 0 to 10, 0 is no effect, 10 is complete control
[6] = Postemergence, Rate 500 g/ha, scale of 0 to 10 where 0 is no effect and 10 is complete control
[7] = Preemergence, Rate 62 g/ha, scale of 0 to 10 where 0 is no effect and 10 is complete control
[8] = Preemergence, Rate 125 g/ha, scale of 0 to 10 where 0 is no effect and 10 is complete control
[9] = Rate 62 g/ha, flood test species, Pre-emergence, visual evaluation after twelve to sixteen days
[10] = Rate 125 g/ha, under heading Pre-emergence, flood test species, visual evaluation after twelve to sixteen days
[11] = Rate 250 g/ha, Pre-emergence (flood test species), scale 0 to 10, 0 is no effect, 10 is complete control
[12] = Rate 500 g/ha, Pre-emergence, flood test species, scale 0 to 10 (0 no effect, 10 complete control)

CC(C)N(C(=O)n1oc(=O)n(COC(=O)C(C)(C)C)c1=O)c1ccc(F)cc1 [Compound 462]
0: Rape plant response rating (rape; [1]) | Plant response rating, Rape (rape; Preemergence, Rate 62 g/ha) | Plant response rating, Rape (rape; Preemergence, Rate 125 g/ha) | Rape plant response rating (rape; [2]) | Rape plant response rating (rape; [3]) | Rape plant response rating (rape; [4]) | Rape plant response rating (rape; [5]) | B. signalgrass plant response rating (surinam grass; Postemergence, Rate 250 g/ha, scale 0 to 10, 0 no effect, 10 complete control) | B. signalgrass plant response rating (surinam grass; [6]) | Plant response rating, B. signalgrass (surinam grass; [7]) | Plant response rating, B. signalgrass (surinam grass; [8]) | B. signalgrass plant response rating (surinam grass; [2]) | B. signalgrass plant response rating (surinam grass; [3]) | B. signalgrass plant response rating (surinam grass; [4]) | B. signalgrass plant response rating (surinam grass; [5]) | Plant response rating, S. Flatsedge (0 to 10 scale, 0 is no effect, 10 is complete control) (smallflower flatsedge; [9]) | S. Flatsedge plant response rating (0 to 10 scale, 0 is no effect, 10 is complete control) (smallflower flatsedge; [10]) | S. Flatsedge plant response rating (smallflower flatsedge; [11]) | S. Flatsedge plant response rating (smallflower flatsedge; [12]) | Wheat plant response rating (wheat; [1]) | Plant response rating, Wheat (wheat; Preemergence, Rate 62 g/ha) | Plant response rating, Wheat (wheat; Preemergence, Rate 125 g/ha) | Wheat plant response rating (wheat; [2]) | Wheat plant response rating (wheat; [3]) | Wheat plant response rating (wheat; [4]) | Wheat plant response rating (wheat; [5]) | Morningglory plant response rating (morningglory; [1]) | Plant response rating, Morningglory (morningglory; Preemergence, Rate 62 g/ha) | Plant response rating, Morningglory (morningglory; Preemergence, Rate 125 g/ha) | Morningglory plant response rating (morningglory; [2]) | Morningglory plant response rating (morningglory; [3]) | Morningglory plant response rating (morningglory; [4]) | Morningglory plant response rating (morningglory; [5]) | Velvetleaf plant response rating (velvetleaf; [1]) | Plant response rating, Velvetleaf (velvetleaf; Preemergence, Rate 62 g/ha) | Plant response rating, Velvetleaf (velvetleaf; Preemergence, Rate 125 g/ha) | Velvetleaf plant response rating (velvetleaf; [2]) | Velvetleaf plant response rating (velvetleaf; [3]) | Velvetleaf plant response rating (velvetleaf; [4]) | Velvetleaf plant response rating (velvetleaf; [5]) | Wild oats plant response rating (wild oat; [1]) | Plant response rating, Wild oats (wild oat; Preemergence, Rate 62 g/ha) | Plant response rating, Wild oats (wild oat; Preemergence, Rate 125 g/ha) | Wild oats plant response rating (wild oat; [2]) | Wild oats plant response rating (wild oat; [3]) | Wild oats plant response rating (wild oat; [4]) | Wild oats plant response rating (wild oat; [5]) | Corn plant response rating (corn; [1]) | Corn plant response rating (corn; [6]) | Plant response rating, Corn (corn; [7]) | Plant response rating, Corn (corn; [8]) | Corn plant response rating (corn; [2]) | Corn plant response rating (corn; [3]) | Corn plant response rating (corn; [4]) | Corn plant response rating (corn; [5]) | Plant response rating, Ducksalad (0 to 10 scale, 0 is no effect, 10 is complete control) (duck salad; [9]) | Ducksalad plant response rating (0 to 10 scale, 0 is no effect, 10 is complete control) (duck salad; [10]) | Ducksalad plant response rating (duck salad; [11]) | Ducksalad plant response rating (duck salad; [12]) | Blackgrass plant response rating (blackgrass; [1]) | Blackgrass plant response rating (blackgrass; [6]) | Plant response rating, Blackgrass (blackgrass; [7]) | Plant response rating, Blackgrass (blackgrass; [8]) | Blackgrass plant response rating (blackgrass; [2]) | Blackgrass plant response rating (blackgrass; [3]) | Blackgrass plant response rating (blackgrass; [4]) | Blackgrass plant response rating (blackgrass; [5]) | Plant response rating, Rice (0 to 10 scale, 0 is no effect, 10 is complete control) (rice; [9]) | Rice plant response rating (0 to 10 scale, 0 is no effect, 10 is complete control) (rice; [10]) | Rice plant response rating (rice; [11]) | Rice plant response rating (rice; [12]) | Redroot pigweed plant response rating (pigweed; [1]) | Plant response rating, Redroot pigweed (pigweed; Preemergence, Rate 62 g/ha) | Plant response rating, Redroot pigweed (pigweed; Preemergence, Rate 125 g/ha) | Redroot pigweed plant response rating (pigweed; [2]) | Redroot pigweed plant response rating (pigweed; [3]) | Redroot pigweed plant response rating (pigweed; [4]) | Redroot pigweed plant response rating (pigweed; [5]) | Cocklebur plant response rating (cocklebur; [1]) | Cocklebur plant response rating (cocklebur; [6]) | Plant response rating, Cocklebur (cocklebur; [7]) | Plant response rating, Cocklebur (cocklebur; [8]) | Cocklebur plant response rating (cocklebur; [2]) | Cocklebur plant response rating (cocklebur; [3]) | Cocklebur plant response rating (cocklebur; [4]) | Cocklebur plant response rating (cocklebur; [5]) | Plant response rating, Bedstraw (bedstraw; Preemergence, Rate 62 g/ha) | Plant response rating, Bedstraw (bedstraw; Preemergence, Rate 125 g/ha) | Bedstraw plant response rating (bedstraw; [2]) | Bedstraw plant response rating (bedstraw; [3]) | Bedstraw plant response rating (bedstraw; [4]) | Bedstraw plant response rating (bedstraw; [5]) | Nutsedge plant response rating (purple nutsedge; [1]) | Plant response rating, Nutsedge (purple nutsedge; Preemergence, Rate 62 g/ha) | Plant response rating, Nutsedge (purple nutsedge; Preemergence, Rate 125 g/ha) | Nutsedge plant response rating (purple nutsedge; [2]) | Nutsedge plant response rating (purple nutsedge; [3]) | Nutsedge plant response rating (purple nutsedge; [4]) | Nutsedge plant response rating (purple nutsedge; [5]) | Plant response rating, Barnyardgrass (0 to 10 scale, 0 is no effect, 10 is complete control) (bamyardgrass; [9]) | Barnyardgrass plant response rating (0 to 10 scale, 0 is no effect, 10 is complete control) (bamyardgrass; [10]) | Barnyardgrass plant response rating (bamyardgrass; [11]) | Barnyardgrass plant response rating (bamyardgrass; [12])
